US20240343747A1, “Heteroaryl compounds as inhibitors of TYK2, composition and application thereof” (Accro Bioscience (HK) Limited, priority 2021, published 2024)

Assays:
JAK1 JH1 = JAK1 JH1 (Homo sapiens (Human), UniProt P23458); assay: Competitive binding assay (kinase-tagged phage, qPCR), JAK1 JH1
Procedure: For most assays, kinase-tagged T7 phage strains were prepared in an E. coli host derived from the BL21 strain. E. coli were grown to log-phase and infected with T7 phage and incubated with shaking at 32° C. until lysis. The lysates were centrifuged and filtered to remove cell debris. The remaining kinases were produced in HEK-293 cells and subsequently tagged with DNA for qPCR detection. Streptavidin coated magnetic beads were treated with biotinylated small molecule ligands for 30 minutes at room temperature to generate affinity resins for kinase assays. The liganded beads were blocked with excess biotin and washed with blocking buffer (SeaBlock (Pierce), 1% BSA, 0.05% Tween 20, 1 mM DTT) to remove unbound ligand and to reduce non-specific binding. […] Test compounds were prepared as 111X stocks in 100% DMSO. Dissociation constants (Kds) were determined using an 11-point 3-fold compound dilution series with three DMSO control points. All compounds for Kd measurements are distributed by acoustic transfer (non-contact dispensing) in 100% DMSO. The compounds were then diluted directly into the assays such that the final concentration of DMSO was 0.9%. All reactions performed in polypropylene 384-well plate. Each was a final volume of 0.02 ml. The assay plates were incubated at room temperature with shaking for 1 hour and the affinity beads were washed with wash buffer (1×PBS, 0.05% Tween 20). The beads were then re-suspended in elution buffer (1×PBS, 0.05% Tween 20, 0.5 μM nonbiotinylated affinity ligand) and incubated at room temperature with shaking for 30 minutes. The kinase concentration in the eluates was measured by qPCR.
An 11-point 3-fold serial dilution of each test compound was prepared in 100% DMSO at 100× final test concentration and subsequently diluted to 1× in the assay (final DMSO concentration=1%). Most Kds were determined using a compound top concentration=30,000 nM. If the initial Kd determined was <0.5 nM (the lowest concentration tested), the measurement was repeated with a serial dilution starting at a lower top concentration.
(§1) Binding constants (Kds) were calculated with a standard dose-response curve using the Hill equation: […]
The Hill Slope was set to −1.
Curves were fitted using a non-linear least square fit with the Levenberg-Marquardt algorithm.

[1] = Metabolic stability test, human liver microsomes; assay type: in vitro ADME
Procedure: (§2) • 1. Buffer A: 1.0 L of 0.1 M monobasic Potassium Phosphate buffer containing 1.0 mM EDTA • Buffer B: 1.0 L of 0.1 M Dibasic Potassium Phosphate buffer containing 1.0 mM EDTA • Buffer C: 0.1 M Potassium Phosphate buffer, 1.0 mM EDTA, at about pH 7.4 by titrating 700 mL of Buffer B with Buffer A while monitoring with the pH meter. • 2. Reference compounds (Ketanserin) and test compounds spiking solution: • 500 µM spiking solution: add 10 μL of 10 mM DMSO stock solution into […] ACN. • 1.5 µM spiking solution in microsomes (0.75 mg/mL): add 1.5 μL of 500 µM spiking solution and 18.75 μL of 20 mg/mL liver microsomes into 479.75 μL of Buffer C on ice. • 3. Prepare NADPH stock solution (6 mM) by dissolving NADPH into buffer C. • 4. Dispense 30 μL of 1.5 µM spiking solution containing 0.75 mg/mL microsomes solution to the assay plates designated for different time points (0-, 5-, 15-, 30-, 45-min) on ice. • 5. For 0-min, add 135 μL of ACN containing IS to the wells of 0-min plate and then add 15 μL of NADPH stock solution (6 mM). • 6. Pre-incubate all other plates at 37° C. for 5 minutes. • 7. Add 15 μL of NADPH stock solution (6 mM) to the plates to start the reaction and timing. • 8. At 5-min, 15-min, 30-min, and 45-min, add 135 μL of ACN containing IS to the wells of corresponding plates, respectively, to stop the reaction. • 9. After quenching, shake the plates at the vibrator (IKA, MTS 2/4) for 10 min (600 rpm/min) and then centrifuge at 5594 g for 15 min (Thermo Multifuge×3R). • 10. Transfer 50 μL of the supernatant from each well into a 96-well sample plate containing 50 μL of ultra pure water (Millipore, ZMQS50F01) for LC/MS analysis.

[2] = Metabolic stability test, rat liver microsomes; assay type: in vitro ADME
Procedure: as §2

JAK2 JH1 = JAK2 JH1 (Homo sapiens (Human), UniProt O60674); assay: Competitive binding assay (kinase-tagged phage, qPCR), JAK2 JH1
Procedure: For most assays, kinase-tagged T7 phage strains were prepared in an E. coli host derived from the BL21 strain. E. coli were grown to log-phase and infected with T7 phage and incubated with shaking at 32° C. until lysis. The lysates were centrifuged and filtered to remove cell debris. The remaining kinases were produced in HEK-293 cells and subsequently tagged with DNA for qPCR detection. Streptavidin coated magnetic beads were treated with biotinylated small molecule ligands for 30 minutes at room temperature to generate affinity resins for kinase assays. The liganded beads were blocked with excess biotin and washed with blocking buffer (SeaBlock (Pierce), 1% BSA, 0.05% Tween 20, 1 mM DTT) to remove unbound ligand and to reduce non-specific binding. […] Test compounds were prepared as 111X stocks in 100% DMSO. Dissociation constants (Kds) were determined using an 11-point 3-fold compound dilution series with three DMSO control points. […] The kinase concentration in the eluates was measured by qPCR.
An 11-point 3-fold serial dilution of each test compound was prepared in 100% DMSO at 100× final test concentration and subsequently diluted to 1× in the assay (final DMSO concentration=1%). Most Kds were determined using a compound top concentration=30,000 nM. […]
as §1

TYK2/JAK2 pathway = assay: Selectivity: TYK2/JAK2 pathway, IL-12-induced p-STAT4 in mouse spleen cells, western blot; assay type: cell-based, mice
Procedure: The spleen of mice was isolated and ground into single cells with bent tweezers. The single cells of the spleen were centrifuged for 5 minutes (400 g), and erythrocytes were lysed with ACK solution and neutralized in 1640 medium, centrifuged for 5 minutes (400 g), and then re-suspended in 1640 medium. The spleen single cell suspension was counted and incubated to a 6-well plate (5 million/well), the compound to be tested was added for 2 hours, and then IL-12 (50 ng/mL) was added to stimulate cells for 1 h. The cells were collected and lysed with protein lysate. The protein was quantitatively tested by BCA kit. Finally, p-STAT4/STAT4 and internal reference protein β-actin were detected by western blot.

JAK1/JAK2 pathway = assay: Selectivity: JAK1/JAK2 pathway, IFN-γ-induced p-STAT1 in HT-29 cells, western blot; assay type: cell-based; conditions: IFN-γ 100 ng/mL
Procedure: HT-29 cells were digested by trypsin and suspended in DMEM medium and counted. The tested compounds were added into 6 well plates (400 000/per well) for 2 hours, then IFN-γ (100 ng/mL) was added to stimulate cells for 30 minutes. The cells were collected and lysed with protein lysate. The protein was quantitatively tested by BCA kit. Finally, p-STAT1/STAT1 and internal reference protein β-actin were detected by western blot.

JAK1/JAK3 pathway = assay: Selectivity: JAK1/JAK3 pathway, IL-2-induced p-STAT5 in human PBMC, western blot; assay type: cell-based; conditions: IL-2 100 ng/mL
Procedure: Commercial human PBMC (peripheral blood mononuclear cells) were centrifuged (400 g) for 10 min, counted and seeded into 6-well plates (5 million/well). The compounds to be tested were added for 2 hours and then IL-2 (100 ng/mL) was added to stimulate cells for 15 minutes. Finally, p-STAT5/STAT5 and internal reference protein β-actin were detected by Western blot.

TYK2/JAK1 pathway = assay: Selectivity: TYK2/JAK1 pathway, IFN-α-induced p-STAT1 in human PBMC, western blot; assay type: cell-based
Procedure: Commercial human PBMC (peripheral blood mononuclear cells) were centrifuged (400 g) for 10 min, counted and planted on 6-well plates (5 million/well). Then, the compounds to be tested were added for 2 hours and IFN-α (100 ng/mL) was added to stimulate cells for 15 minutes. Protein lysate was used to lysate cells, and BCA kit was used for protein quantification. Finally, p-STAT1/STAT1, P-TYK2/TYK2 and internal reference protein B-Actin were detected by Western blot.

Chain of JAK1 JH1 (P23458 875-1153): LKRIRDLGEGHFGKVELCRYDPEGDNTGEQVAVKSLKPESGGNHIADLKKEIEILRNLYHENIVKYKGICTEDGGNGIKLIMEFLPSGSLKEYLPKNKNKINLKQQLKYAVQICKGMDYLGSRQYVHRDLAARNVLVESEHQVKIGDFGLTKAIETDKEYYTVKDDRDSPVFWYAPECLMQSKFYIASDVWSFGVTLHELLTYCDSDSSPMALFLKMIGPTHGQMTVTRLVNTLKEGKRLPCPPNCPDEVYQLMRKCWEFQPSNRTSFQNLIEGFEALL
Chain of JAK2 JH1 (O60674 849-1124): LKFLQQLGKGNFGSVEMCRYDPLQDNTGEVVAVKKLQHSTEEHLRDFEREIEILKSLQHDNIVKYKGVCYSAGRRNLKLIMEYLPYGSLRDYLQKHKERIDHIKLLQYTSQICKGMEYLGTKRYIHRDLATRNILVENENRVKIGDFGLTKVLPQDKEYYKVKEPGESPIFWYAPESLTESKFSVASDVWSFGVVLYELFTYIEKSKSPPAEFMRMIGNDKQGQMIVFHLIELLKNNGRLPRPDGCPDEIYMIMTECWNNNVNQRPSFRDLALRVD

| Kd (JAK1 JH1) [µM] | stability in human liver microsomes (in words) ([1]; conclusion from Table 5) | CL HLM ([1]; human liver microsomes) [mL/min/kg] | half-life at 1 μM ([1]; pH 7.4, human liver microsomes, read-out: T1/2 HLM) [h] | stability in rat liver microsomes (in words) ([2]; conclusion from Table 5) | half-life at 1 μM ([2]; pH 7.4, rat liver microsomes, read-out: T1/2 RLM) [h] | CL RLM ([2]; rat liver microsomes) [mL/min/kg] | Kd (JAK2 JH1) [µM] | Structure (SMILES) | inhibition of TYK2/JAK2 pathway compared with BMS986165 (TYK2/JAK2 pathway; IL-12) | inhibition of downstream STAT4 phosphorylation induced by IL-12 (TYK2/JAK2 pathway; IL-12 50 ng/mL, western blot) | effect on downstream STAT1 phosphorylation induced by IFN-γ (JAK1/JAK2 pathway) | effect on IL-2-induced downstream STAT5 phosphorylation (JAK1/JAK3 pathway) | inhibition of TYK2/JAK1 pathway compared with BMS986165 (TYK2/JAK1 pathway; IFN-α) | inhibition of downstream STAT1 phosphorylation induced by IFN-α (TYK2/JAK1 pathway; IFN-α 100 ng/mL, western blot) |
| --- | --- | --- | --- | --- | --- | --- | --- | --- | --- | --- | --- | --- | --- | --- |
| > 30 | good stability | <8.6 | > 2.42 | good stability | 1.68 | 24.6 | – | CCC(=O)c1cnc(NC(=O)C2CC2)cc1Nc1cccc(-c2cc(P(C)(C)=O)n(C)n2)c1OC [Compound B2, N-(4-((3-(5-(dimethylphosphoryl)-1-methyl-1H-pyrazol-3-yl)-2-methoxyphenyl)amino)-5-propionylpyridin-2-yl)cyclopropanecarboxamide] | – | – | – | – | – | – |
| > 30 | – | – | – | – | – | – | > 30 | CCC(=O)c1cnc(NC(=O)C2CC2)cc1Nc1cccc(-c2cc(P(=O)(C3CC3)C3CC3)n(C)n2)c1OC [Compound B37, N-(4-((3-(5-(dicyclopropylphosphoryl)-1-methyl-1H-pyrazol-3-yl)-2-methoxyphenyl)amino)-5-propionylpyridin-2-yl)cyclopropanecarboxamide] | better than BMS986165 | effectively inhibit | no effect | no effect | better inhibitory activity than BMS986165 | effectively inhibit |
